Read-outs that look alike come from different tables or passages of the source.
Experiments:
[1] = test system: Cyprid larvae from Balanus improvisus
Method: Cyprid larvae from Balanus improvisus were transferred to Petri dishes containing seawater from the Swedish west coast and medetomidine in various concentrations (0.1 nM, 1 nM, 10 nM, 100 nM and 1 μM). In addition, for control purposes, cyprid larvae were transferred to a Petri dish containing seawater only. After 11 days the cyprids were counted and classified as either 1) settled (established) on the surface of the Petri dish, 2) swimming, i.e. living, not established, or 3) dead. The results in the table are expressed in percentage of the total number of organisms in each group (=n).
This example corresponds to Example 1 with the exception that medetomidine was replaced by clonidine in the concentrations defined in Table 2 below.

cyprid larvae [2] = conditions: cleaned, as Example 3
Method: Petri dishes of hydrophilic polystyrene were filled with a solution of medetomidine in varying concentrations (0 ng/ml 10 ng/ml, 1 μg/ml and 10 μg/ml). Like in Example 1, one Petri dish with no medetomidine was used as control. After a 24 hour incubation period in room temperature the dishes were cleaned thoroughly with seawater. The dishes were then incubated with cyprid larvae in amounts of approximately 20 larvae/dish. Readings were taken under microscope after 7 days, and the larvae were classified as either settled, free-swimming or dead.
Example 3 was repeated, with the difference that Petri dishes of hydrophobic polystyrene were used instead of hydrophilic dishes.

cyprid larvae [3] = conditions: for Dead / Settled / Swimming: cleaned, reading after 7 days
Method: Petri dishes of hydrophilic polystyrene were filled with a solution of medetomidine in varying concentrations (0 ng/ml 10 ng/ml, 1 μg/ml and 10 μg/ml). […] After a 24 hour incubation period in room temperature the dishes were cleaned thoroughly with seawater. The dishes were then incubated with cyprid larvae in amounts of approximately 20 larvae/dish. Readings were taken under microscope after 7 days, and the larvae were classified as either settled, free-swimming or dead.

[4] = test system: tube building polychaetes (Hydroides elegans); conditions: for Dead / Settled / Swimming: incubated two days
Method: The polychaete larvae were incubated for two days in Petri dishes containing sea water and were then classified as either settled, free swimming or dead, like in Example 1. The water originated from the coast outside Sydney, Australia, and the experiment was carried out in May 1999.

[5] = test system: acorn barnacles (Balanus improvisus); conditions: for Number of Balanus improvisus/10 cm^2: acrylate-based paint with 0.02% by weight medetomidine
Method: Medetomidine was added to an acrylate-based paint formula to a concentration of 0.02% by weight (or 170 μg/ml). The paint was then applied on 10 test surfaces dimensioned 10×10 cm^2. The surfaces were allowed to dry at room temperature and were then mounted on racks, which were placed at a depth of about one meter in a bay in the sea offshore from Strömstad, Sweden, and were allowed to remain there during August and September of 1999. After 2, 4 and 8 weeks, respectively, the test surfaces were removed from the sea and the number of acorn barnacles (Balanus improvisus) were counted.

[6] = medetomidine 0.1 nM, after 11 days, % of total organisms
[7] = medetomidine 1 nM, after 11 days, % of total organisms
[8] = medetomidine 10 nM, after 11 days, % of total organisms
[9] = medetomidine 100 nM, after 11 days, % of total organisms
[10] = medetomidine 1000 nM, after 11 days, % of total organisms
[11] = hydrophobic polystyrene dish pre-incubated with medetomidine 1 ng/ml
[12] = hydrophobic polystyrene dish pre-incubated with medetomidine 10 ng/ml
[13] = hydrophobic polystyrene dish pre-incubated with medetomidine 1000 ng/ml
[14] = hydrophobic polystyrene dish pre-incubated with medetomidine 10000 ng/ml
[15] = hydrophilic polystyrene dish pre-incubated 24 h with medetomidine 1 ng/ml
[16] = hydrophilic polystyrene dish pre-incubated 24 h with medetomidine 10 ng/ml
[17] = hydrophilic polystyrene dish pre-incubated 24 h with medetomidine 1000 ng/ml
[18] = hydrophilic polystyrene dish pre-incubated 24 h with medetomidine 10000 ng/ml
[19] = clonidine 0.027 ng/ml, as Example 1
[20] = clonidine 0.27 ng/ml, as Example 1
[21] = clonidine 2.7 ng/ml, as Example 1
[22] = clonidine 27 ng/ml, as Example 1
[23] = clonidine 270 ng/ml, as Example 1

SMILES: Cc1cccc(C(C)c2cnc[nH]2)c1C (racemic) [medetomidine, (±)-4-[1-(2,3-dimethylphenyl)-ethyl]-1H-imidazole-mono-hydrogen chloride]
- Dead [1, 6]: 0%
- Settled [1, 6]: 52%
- Swimming [1, 6]: 48%
- Dead [1, 7]: 0%
- Settled [1, 7]: 1.5%
- Swimming [1, 7]: 98%
- Dead [1, 8]: 0%
- Settled [1, 8]: 0%
- Swimming [1, 8]: 100%
- Dead [1, 9]: 0%
- Settled [1, 9]: 0%
- Swimming [1, 9]: 100%
- Dead [1, 10]: 0%
- Settled [1, 10]: 0%
- Swimming [1, 10]: 100%
- number of established larvae ([1]; upon increased concentration of medetomidine (0.1 nM to 1 μM)): decreased upon increased concentration
- number of dead cyprids ([1]; upon increased contents of medetomidine (0.1 nM to 1 μM)): did not increase
- Dead (cyprid larvae [2]; [11]): 0%
- Settled (cyprid larvae [2]; [11]): 63.1%
- Swimming (cyprid larvae [2]; [11]): 36.9%
- Dead (cyprid larvae [2]; [12]): 2.1%
- Settled (cyprid larvae [2]; [12]): 33.3%
- Swimming (cyprid larvae [2]; [12]): 65%
- Dead (cyprid larvae [2]; [13]): 0%
- Settled (cyprid larvae [2]; [13]): 0%
- Swimming (cyprid larvae [2]; [13]): 100%
- Dead (cyprid larvae [2]; [14]): 2.1%
- Settled (cyprid larvae [2]; [14]): 0%
- Swimming (cyprid larvae [2]; [14]): 97.9%
- number of settled acorn barnacles (cyprid larvae [3]; also at very low medetomidine incubation concentrations): significant reduction
- Dead (cyprid larvae [3]; [15]): 0%
- Settled (cyprid larvae [3]; [15]): 6.2%
- Swimming (cyprid larvae [3]; [15]): 93.8%
- Dead (cyprid larvae [3]; [16]): 0%
- Settled (cyprid larvae [3]; [16]): 0%
- Swimming (cyprid larvae [3]; [16]): 100%
- Dead (cyprid larvae [3]; [17]): 0%
- Settled (cyprid larvae [3]; [17]): 0%
- Swimming (cyprid larvae [3]; [17]): 100%
- Dead (cyprid larvae [3]; [18]): 0%
- Settled (cyprid larvae [3]; [18]): 0%
- Swimming (cyprid larvae [3]; [18]): 100%
- effect on settling of polychaete larvae ([4]; concentration span of from 0.1 nM to 100 μM): significant inhibiting effect
- Dead ([4]; medetomidine 0.1 nM): 2.3%
- Settled ([4]; medetomidine 0.1 nM): 9.3%
- Swimming ([4]; medetomidine 0.1 nM): 88.4%
- Dead ([4]; medetomidine 1 nM): 5.4%
- Settled ([4]; medetomidine 1 nM): 5.4%
- Swimming ([4]; medetomidine 1 nM): 89.2%
- Dead ([4]; medetomidine 10 nM): 4.4%
- Settled ([4]; medetomidine 10 nM): 0%
- Swimming ([4]; medetomidine 10 nM): 95.6%
- Dead ([4]; medetomidine 100 nM): 20%
- Settled ([4]; medetomidine 100 nM): 0%
- Swimming ([4]; medetomidine 100 nM): 80%
- Dead ([4]; medetomidine 1000 nM): 45.7%
- Settled ([4]; medetomidine 1000 nM): 0%
- Swimming ([4]; medetomidine 1000 nM): 54.3%
- Dead ([4]; medetomidine 100 000 nM): 100%
- Settled ([4]; medetomidine 100 000 nM): 0%
- Swimming ([4]; medetomidine 100 000 nM): 0%
- toxic effects on polychaete larvae ([4]; span from 100 nM to 100 μM): toxic effects appear
- Number of Balanus improvisus/10 cm^2 ([5]; 2 weeks in the sea): 4.63 ± 1.04 /10 cm^2
- Number of Balanus improvisus/10 cm^2 ([5]; 4 weeks in the sea): 5.6 ± 1.4 /10 cm^2
- Number of Balanus improvisus/10 cm^2 ([5]; 8 weeks in the sea): 148.1 ± 16.24 /10 cm^2
- number of acorn barnacles on the test surfaces compared with the control surfaces ([5]; paint with 0.02% by weight medetomidine, 2, 4 and 8 weeks): significant reduction

SMILES: Clc1cccc(Cl)c1NC1=NCCN1 [clonidine, 2-(2,6-di-chloro-anilino)-2-imidazoline]
- Dead ([1]; Balanus improvisus, in vivo, 11 days, 0.027 ng/ml): 0%
- Dead ([1]; Balanus improvisus, in vivo, 11 days, 0.27 ng/ml): 0%
- Dead ([1]; Balanus improvisus, in vivo, 11 days, 2.7 ng/ml): 1.7%
- Dead ([1]; Balanus improvisus, in vivo, 11 days, 27 ng/ml): 1.5%
- Dead ([1]; Balanus improvisus, in vivo, 11 days, 270 ng/ml): 8.3%
- Settled [1, 19]: 36.7%
- Swimming [1, 19]: 65.7%
- Settled [1, 20]: 22.3%
- Swimming [1, 20]: 77.7%
- Settled [1, 21]: 1.8%
- Swimming [1, 21]: 96.5%
- Settled [1, 22]: 0%
- Swimming [1, 22]: 98.5%
- Settled [1, 23]: 0%
- Swimming [1, 23]: 91.7%
